Experimental data published in publication PMC10080127, “Metabolic stability and metabolite profiling of emerging synthetic cathinones” (Frontiers in Pharmacology, 2023).

Experiments:
[1] = Phase II (glucuronidation) metabolite generation in alamethicin-induced HLM with NADPH and UDPGA; type: in vitro ADME, human; details: 2 h, LC-HRMS/MS
Method: For the generation of Phase II metabolites, alamethicine-induced HLM ([Fisher et al., 2000]) were used in the presence of Phase I and glucuronidation co-factor. Briefly, HLM (1 mg/mL) were preincubated for 15 min, in ice, with alamethicin (25 μg/mL) in 50 mM ABIC buffer at pH 7.4, for a total incubation volume of 200 μL. Following the addition of MgCl2 (2 mM; 1 μL) and selected cathinone (10 μM final concentration), the resulting solution was incubated for 5 min at 37°. NADPH (5 mM) and UDPGA (5 mM) were then added to start the Phase I and II reactions. Incubations were run in duplicate.
An in-house accurate mass library was first built, considering the metabolic pathways already known for other structurally similar cathinones, and a targeted screening was then carried out by performing extracted ion chromatograms (EIC), with a mass window of ±5 ppm, for the protonated/deprotonated molecules of the expected metabolites in the full scan spectra. Isotope cluster analysis was also used to identify chlorinated metabolites. All spectra corresponding to metabolites were then manually checked. The mass deviation from the accurate mass of the identified cathinone metabolites remained below 5 ppm for the precursor and below 10 ppm for product ions. Candidates present in control incubations and/or without MS/MS data were excluded. […] Metabolites were ranked based on their relative abundance over incubation time (Figures 2–9). The relative abundance was calculated by the ratio of the relative area of each metabolite and the sum of the relative areas obtained for all metabolites and for the respective parent cathinone.

[2] = Metabolic stability (substrate depletion) in human liver microsome Phase I incubations; details: for intrinsic clearance (CLint): HLM incubations, scaled with 45 mg microsomal protein/g liver and 26 g liver/kg b.w.; for half-life at 10 μM: human, human liver microsomes
[3] = parameters: method as in Wagmann et al., 2020; details: ref Wagmann et al., 2020; cited from earlier work
[4] = pH 7.4, clearance classification based on t1/2, HLM, scoring proposed by McNaney et al. (2008)
[5] = pH 7.4, half-life (t1/2), HLM 1 mg/mL, cathinone 10 μM, NADPH, 37°C, pH 7.4

| Compound | Phase II (glucuronide) metabolites identified [1] | intrinsic clearance (CLint) [2] | half-life at 10 μM [2, 4] | half-life at 10 μM [2, 5] | half-life (t1/2) reported [3] |
| --- | --- | --- | --- | --- | --- |
| CCC(C(=O)c1ccc(C)cc1)N(C)C (stereo not shown) [4-MDMB, 4′-methyl-N,N-dimethylbufedrone] | No Phase II metabolite was detected | 54 mLmin^−1 kg^−1 | < 20 min | 15 min |  |
| CCNC(CC)C(=O)c1ccc(C)cc1 (stereo not shown) [4-MNEB, 4′-methyl-N-ethylbufedrone] | No Phase II metabolites were identified | 16 mLmin^−1 kg^−1 |  | 55 min |  |
| CCCC(C(=O)c1ccc(C)cc1)N(C)C (stereo not shown) [4-MDMP, 4′-methyl-N,N-dimethylpentedrone] | No Phase II metabolites were identified | 18 mLmin^−1 kg^−1 |  | 46 min |  |
| CC(C)NC(C)C(=O)c1cccc(Cl)c1 (stereo not shown) [3-CIC, 3′-chloro-N-isopropylcathinone] |  | 34 mLmin^−1 kg^−1 |  | 24 min |  |
| CCCC(NCC)C(=O)c1ccc(C)cc1 (stereo not shown) [4-MEAP, 4′-methyl-N-ethylnorpentedrone] | no glucuronide metabolite was identified | 33 mLmin^−1 kg^−1 |  | 24 min |  |
| CNC(C)C(=O)c1cccc(Cl)c1 (stereo not shown) [3-CMC, 3′-chloromethcathinone] | No Phase II metabolites were identified | 15 mLmin^−1 kg^−1 |  | 54 min |  |
| CC(C)NC(C)C(=O)c1ccc(Cl)cc1 (stereo not shown) [4-CIC, 4′-chloro-N-isopropylcathinone] |  | 22 mLmin^−1 kg^−1 |  | 36 min |  |
| CNC(C)C(=O)c1ccc(Cl)cc1 (stereo not shown) [4-CMC, 4′-chloromethcathinone] | no Phase II metabolite was identified | 10 mLmin^−1 kg^−1 | > 60 min | 78 min |  |
| CCNC(C)C(=O)c1ccc(Cl)cc1 (stereo not shown) [4-CEC, 4-chloroethcathinone] |  |  |  |  | 105 min |
